In US8742110B2, “Spiroxazolidinone compounds” (Merck Sharp & Dohme Corp., priority 2010, dated 2014):
Structures can show the parent of a compound that is named as a salt.

Target: SSTR5 (Homo sapiens (Human), UniProt P35346)
Experiment: SSTR5 binding assay
Details: CHO-K1 membranes expressing cloned human SSTR5
In short: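 Competition binding on membranes from CHO-K1 cells stably expressing cloned human receptor, using radiolabeled somatostatin in 50 mM Tris-HCl pH 7.8 with EGTA, MgCl2 and protease inhibitors. Unlabeled compounds tested from 0.01 nM to 10,000 nM.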

SSTR5, sequence (P35346 whole entry): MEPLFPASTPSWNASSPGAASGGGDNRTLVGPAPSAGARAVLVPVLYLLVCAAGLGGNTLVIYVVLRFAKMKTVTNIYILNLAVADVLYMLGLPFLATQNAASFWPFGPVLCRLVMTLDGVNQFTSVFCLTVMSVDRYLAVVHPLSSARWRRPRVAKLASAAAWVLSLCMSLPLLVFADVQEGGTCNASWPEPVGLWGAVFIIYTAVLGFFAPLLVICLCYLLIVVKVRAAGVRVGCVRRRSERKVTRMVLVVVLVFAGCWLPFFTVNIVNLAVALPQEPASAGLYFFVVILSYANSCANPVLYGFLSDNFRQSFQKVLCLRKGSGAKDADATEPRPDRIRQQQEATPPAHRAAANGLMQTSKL

Row | IC50 | SMILES
1 | 89.9 nM | O=C(O)c1ccc(N2CC3(CCN(Cc4nc(-c5ccccc5)oc4-c4cc(F)c(F)cc4F)CC3)OC2=O)cc1 [Example 6-30, 4-(2-Oxo-8-{[2-phenyl-5-(2,4,5-trifluorophenyl)-1,3-oxazol-4-yl]methyl}-1-oxa-3,8-diazaspiro[4.5]dec-3-yl)benzoic acid, TFA salt]
2 | 1010 nM | Cc1nc2ccccn2c1CN1CCC2(CC1)CN(c1ccc(C(=O)O)cc1)C(=O)O2 [Example 6-38, 4-{8-[(2-Methylimidazo[1,2-a]pyridin-3-yl)methyl]-2-oxo-1-oxa-3,8-diazaspiro[4.5]dec-3-yl}benzoic acid, TFA salt]
3 | 0.943 nM | O=C(O)c1ccc(N2CC3(CCN(Cc4cn(C5CCCCC5)nc4-c4ccc(F)c(Cl)c4)CC3)OC2=O)cc1 [Example 1-2, 4-(8-{[3-(3-Chloro-4-fluorophenyl)-1-cyclohexyl-1H-pyrazol-4-yl]methyl}-2-oxo-1-oxa-3,8-diazaspiro[4.5]dec-3-yl)benzoic acid, TFA salt]
4 | 1740 nM | COc1ccc2c(CN3CCC4(CC3)CN(c3ccc(C(=O)O)cc3)C(=O)O4)n[nH]c2c1 [Example 6-2, 4-{8-[(6-Methoxy-1H-indazol-3-yl)methyl]-2-oxo-1-oxa-3,8-diazaspiro[4.5]dec-3-yl}benzoic acid, TFA salt]
5 | 1.83 nM | O=C(O)c1ccc(N2CC3(CCN(Cc4cnn(-c5ccccc5)c4-c4cc(F)c(F)cc4F)CC3)OC2=O)cc1 [Example 2-7, 4-(2-Oxo-8-{[1-phenyl-5-(2,4,5-trifluorophenyl)-1H-pyrazol-4-yl]methyl}-1-oxa-3,8-diazaspiro[4.5]dec-3-yl)benzoic acid, TFA salt]
6 | 229 nM | CCOc1cc(CN2CCC3(CC2)CN(c2ccccc2C(=O)O)C(=O)O3)cc(OCC)c1-c1ccc(F)cc1 [Example 3-3, 2-{8-[(2,6-Diethoxy-4′-fluorobiphenyl-4-yl)methyl]-2-oxo-1-oxa-3,8-diazaspiro[4.5]dec-3-yl}benzoic acid, TFA salt]
7 | 45.3 nM | CC1(C)Cc2cc(CN3CCC4(CC3)CN(c3ccc(C(=O)O)cc3)C(=O)O4)ccc2O1 [Example 5-18, 4-{8-[(2,2-Dimethyl-2,3-dihydro-1-benzofuran-5-yl)methyl]-2-oxo-1-oxa-3,8-diazaspiro[4.5]dec-3-yl}benzoic acid, TFA salt]
8 | 1.53 nM | O=C(O)c1ccc(N2CC3(CCN(Cc4cn(C5CCCCC5)nc4-c4cccc(C(F)(F)F)c4)CC3)OC2=O)cc1 [Example 1-5, 4-[8-({1-Cyclohexyl-3-[3-(trifluoromethyl)phenyl]-1H-pyrazol-4-yl}methyl)-2-oxo-1-oxa-3,8-diazaspiro[4.5]dec-3-yl]benzoic acid, TFA salt]
9 | 112 nM | O=C(O)c1ccc(N2CC3(CCN(Cc4nn(Cc5ccc(Cl)cc5)cc4-c4cc(F)c(F)cc4F)CC3)OC2=O)cc1 [Example 2-4, 4-(8-{[1-(4-Chlorobenzyl)-4-(2,4,5-trifluorophenyl)-1H-pyrazol-3-yl]methyl}-2-oxo-1-oxa-3,8-diazaspiro[4.5]dec-3-yl)benzoic acid, TFA salt]
10 | 1.31 nM | Cc1cc(-c2ccc(F)nc2)c(CN2CCC3(CC2)CN(c2ccc(C(=O)O)cc2)C(=O)O3)cc1Cl [Example 4-25, 4-{8-[5-Chloro-2-(6-fluoropyridin-3-yl)-4-methylbenzyl]-2-oxo-1-oxa-3,8-diazaspiro[4.5]dec-3-yl}benzoic acid, TFA salt]
11 | 5.29 nM | CC(C)(C)Cn1cc(CN2CCC3(CC2)CN(c2ccc(C(=O)O)cc2)C(=O)O3)c(-c2ccc(F)c(Cl)c2)n1 [Example 1-38, 4-(8-{[3-(3-Chloro-4-fluorophenyl)-1-(2,2-dimethylpropyl)-1H-pyrazol-4-yl]methyl}-2-oxo-1-oxa-3,8-diazaspiro[4.5]dec-3-yl)benzoic acid, TFA salt]
12 | 2.09 nM | CC(C)(C)n1cc(CN2CCC3(CC2)CN(c2ccc(C(=O)O)cc2)C(=O)O3)c(-c2cc(F)c(Cl)cc2F)n1 [Example 1-31, 4-(8-{[1-tert-Butyl-3-(4-chloro-2,5-difluorophenyl)-1H-pyrazol-4-yl]methyl}-2-oxo-1-oxa-3,8-diazaspiro[4.5]dec-3-yl)benzoic acid, TFA salt]
13 | 6.24 nM | Cc1cc(N2CC3(CCN(Cc4cn(C(C)(C)C)nc4-c4cc(F)c(Cl)cc4F)CC3)OC2=O)ccc1C(=O)O [Example 1-11, 4-(8-{[1-tert-Butyl-3-(4-chloro-2,5-difluorophenyl)-1H-pyrazol-4-yl]methyl}-2-oxo-1-oxa-3,8-diazaspiro[4.5]dec-3-yl)-2-methylbenzoic acid, TFA salt]
14 | 26.8 nM | COc1ccc(-c2nn(C(C)(C)C)cc2CN2CCCC3(CC2)CN(c2ccc(C(=O)O)cc2)C(=O)O3)cc1 (centres unmarked) [Example 2-14, 4-(8-{[1-tert-Butyl-3-(4-methoxyphenyl)-1H-pyrazol-4-yl]methyl}-2-oxo-1-oxa-3,8-diazaspiro[4.6]undec-3-yl)benzoic acid, TFA salt]
15 | 0.225 nM | CC(C)n1cc(CN2CCC3(CC2)CN(c2ccc(C(=O)O)cc2)C(=O)O3)c2c(OCc3ccccc3)cccc21 [Example 6-18, 4-(8-{[4-(Benzyloxy)-1-(propan-2-yl)-1H-indol-3-yl]methyl}-2-oxo-1-oxa-3,8-diazaspiro[4.5]dec-3-yl)benzoic acid, TFA salt]
16 | 4320 nM | Cn1cc(-c2cc(F)c(F)cc2F)c(CN2CCC3(CC2)CN(c2ccc(C(=O)O)cc2)C(=O)O3)n1 [Example 2-2, 4-(8-{[1-Methyl-4-(2,4,5-trifluorophenyl)-1H-pyrazol-3-yl]methyl}-2-oxo-1-oxa-3,8-diazaspiro[4.5]dec-3-yl)benzoic acid, TFA salt]
17 | 79 nM | O=C(O)c1ccc(N2CC3(CCN(Cc4c(Cc5cc(F)c(F)cc5F)nn(-c5ccccc5)c4Cl)CC3)OC2=O)cc1 [Example 1-47, 4-(8-{[5-Chloro-1-phenyl-3-(2,4,5-trifluorobenzyl)-1H-pyrazol-4-yl]methyl}-2-oxo-1-oxa-3,8-diazaspiro[4.5]dec-3-yl)benzoic acid, TFA salt]
18 | 5.33 nM | O=C(O)c1ccc(N2CC3(CCN(Cc4cn(-c5ccc(F)cc5)nc4-c4ccc(F)cc4)CC3)OC2=O)cc1 [Example 1-20, 4-(8-{[1,3-Bis(4-fluorophenyl)-1H-pyrazol-4-yl]methyl}-2-oxo-1-oxa-3,8-diazaspiro[4.5]dec-3-yl)benzoic acid, TFA salt]
19 | 14.9 nM | CC(C)(C)n1cc(CN2CC3(C2)CN(c2ccc(C(=O)O)cc2)C(=O)O3)c(-c2ccc(F)c(F)c2F)n1 [Example 2-9, 4-(2-{[1-tert-Butyl-3-(2,3,4-trifluorophenyl)-1H-pyrazol-4-yl]methyl}-6-oxo-5-oxa-2,7-diazaspiro[3.4]oct-7-yl)benzoic acid, TFA salt]
20 | 509 nM | CCOc1nn(C(C)(C)C)cc1CN1CCC2(CC1)CN(c1ccc(C(=O)O)cc1)C(=O)O2 [Example 1-36, 4-{8-[(1-tert-Butyl-3-ethoxy-1H-pyrazol-4-yl)methyl]-2-oxo-1-oxa-3,8-diazaspiro[4.5]dec-3-yl}benzoic acid, TFA salt]
21 | 1.25 nM | CC1(C)CCOc2c(Cl)cc(CN3CCC4(CC3)CN(c3ccc(C(=O)O)cc3)C(=O)O4)cc21 [Example 5-15, 4-{8-[(8-Chloro-4,4-dimethyl-3,4-dihydro-2H-chromen-6-yl)methyl]-2-oxo-1-oxa-3,8-diazaspiro[4.5]dec-3-yl}benzoic acid, TFA salt]
22 | 2 nM | COc1ccc(-c2nn(-c3ccccc3)cc2CN2CCC3(CC2)CN(c2ccc(C(=O)O)cc2)C(=O)O3)cc1 [Example 1-9, 4-(8-{[3-(4-Methoxyphenyl)-1-phenyl-1H-pyrazol-4-yl]methyl}-2-oxo-1-oxa-3,8-diazaspiro[4.5]dec-3-yl)benzoic acid, TFA salt]
23 | 2.62 nM | CC(C)(C)n1cc(CN2CCC3(CC2)CN(c2ccc(C(=O)O)cc2)C(=O)O3)c(-c2cc(F)c(F)cc2F)n1 [Example 1-7, 4-(8-{[1-tert-Butyl-3-(2,4,5-trifluorophenyl)-1H-pyrazol-4-yl]methyl}-2-oxo-1-oxa-3,8-diazaspiro[4.5]dec-3-yl)benzoic acid, TFA salt]
24 | 2.23 nM | CC(C)(C)n1cc(CN2CCC3(CC2)CN(c2ccc(C(=O)O)cc2)C(=O)O3)c(-c2ccc(F)c(F)c2F)n1 [Example 1-1, 4-(8-{[1-tert-Butyl-3-(2,3,4-trifluorophenyl)-1H-pyrazol-4-yl]methyl}-2-oxo-1-oxa-3,8-diazaspiro[4.5]dec-3-yl)benzoic acid, TFA salt]
25 | 0.359 nM | CCOc1cc(CN2CCC3(CC2)CN(c2ccc(C(=O)O)cc2Cl)C(=O)O3)cc(OCC)c1-c1ccc(F)cc1 [Example 3-19, 3-Chloro-4-{8-[(2,6-diethoxy-4′-fluorobiphenyl-4-yl)methyl]-2-oxo-1-oxa-3,8-diazaspiro[4.5]dec-3-yl}benzoic acid, TFA salt]
26 | 11.3 nM | CCOc1cc(CN2CCC3(CC2)CN(c2ccc(C(=O)O)cc2)C(=O)O3)cc2ccc(C(F)(F)F)nc12 [Example 5-9, 4-(8-{[8-Ethoxy-2-(trifluoromethyl)quinolin-6-yl]methyl}-2-oxo-1-oxa-3,8-diazaspiro[4.5]dec-3-yl)benzoic acid, TFA salt]
27 | 0.26 nM | CC(C)n1nc(CN2CCC3(CC2)CN(c2ccc(C(=O)O)cc2)C(=O)O3)c2cc(OCc3ccccc3)ccc21 [Example 6-14, 4-(8-{[5-(Benzyloxy)-1-(propan-2-yl)-1H-indazol-3-yl]methyl}-2-oxo-1-oxa-3,8-diazaspiro[4.5]dec-3-yl)benzoic acid, TFA salt]
28 | 11.7 nM | CCCCn1cc(CN2CCC3(CC2)CN(c2ccc(C(=O)O)cc2)C(=O)O3)c2ccc(OC)cc21 [Example 6-21, 4-{8-[(6-Methoxy-1-butyl-1H-indol-3-yl)methyl]-2-oxo-1-oxa-3,8-diazaspiro[4.5]dec-3-yl}benzoic acid, TFA salt]
29 | 1.21 nM | CCOc1cc(CN2CCC3(CC2)CN(c2ccc(C(=O)O)c(Cl)c2)C(=O)O3)cc(OCC)c1-c1ccc(F)cc1 [Example 3-9, 2-Chloro-4-{8-[(2,6-diethoxy-4′-fluorobiphenyl-4-yl)methyl]-2-oxo-1-oxa-3,8-diazaspiro[4.5]dec-3-yl}benzoic acid, TFA salt]
